{"source": "patent US10478501B2", "about": "“Method of treating disorders using a pharmaceutical composition of oligopeptides” (Merck Patent GmbH, priority 2011, dated 2019)", "key": {"[1]": {"system": "MDA-MB468 human breast tumour cells", "test": "Study 007: MDA-MB-468 primary tumor growth", "format": "in vivo, female BALB/c nu/nu mice", "settings": "all three dosing groups (75, 150 or 300 mg/kg) daily s.c., composition according to Example 18; Vehicle Control higher than 350 mm^3", "method": "MDA-MB468 human breast tumour cells were orthotopically inoculated into the third mammary fat pad of female BALB/c nu/nu mice. The mice were randomised into groups when the tumors reached a size of approximately 40 mm^3.\nThe mice in each group received treatment with either Vehicle Control (Placebo) or EMD 121974 (75, 150 or 300 mg/kg as a Composition according to Example 18) by daily subcutaneous injection. Body weight and tumour volume measurements were made for all mice three times per week."}, "[2]": {"system": "MDA-MB-231 breast cancer bone metastases", "test": "Experimental breast cancer bone metastases in nude rats: DCE-MRI parameters amplitude A and kep", "format": "in vivo, nude rats (RNU strain)", "method": "Nude rats (RNU strain) are obtained from Harlan-Winkelmann GmbH (Borchen, Germany) at the age of six weeks and housed in a specific pathogen-free environment in a mini barrier system of the central animal facility. Animals are kept under controlled conditions (21±2° C. room temperature, 60% humidity, 12 h light-dark rhythm) and offered autoclaved food and water ad libitum. Sub-confluent MDAMB-231 cells are harvested using 0.05% Trypsin-EDTA (Gibco®; Invitrogen, Karlsruhe, Germany) counted on a Neubauer's chamber and resuspended in RPMI-1640 to a final concentration of 10^5 cells in 200 μl. Rats are anesthetized using a mixture of nitrous oxide (1 l/min), oxygen (0.5 l/min) and isoflurane (1.5 vol. %). Arterial branches of the right hind leg are dissected and 10^5 cells injected into the superficial epigastric artery as described previously.^28 Bone metastases established and are observed exclusively in the femur, tibia and fibula of the right hind leg. 30 days after cancer cell transplantation, rats (n=24) are randomly divided into two groups, one group receiving the cyclic RGD-peptide inhibitor of αvβ3/αvβ5 integrins (cilengitide, EMD 121974^14, 17, 29; Merck, Darmstadt, Germany) intraperitoneally five times per week (75 mg/kg; n=12 rats) and the other, sham-treated group, serving as a control (n=12 rats). The observation period of all animals is 55 days and no rat in the study dies ahead of schedule.\nAfter the inoculation of cancer cells each rat is imaged at days 30, 35, 45 and 55 using (i) a flat-panel equipped volumetric computed tomograph (Volume CT, Siemens, Germany) and (ii) a 1.5T clinical magnetic resonance scanner (Symphony, Siemens, Erlangen, Germany) equipped with a home-built receive-transmit coil (cylindrical volume resonator with an inner diameter of 83 mm and a usable length of 120 mm). Prior to in vivo imaging with VCT and MRI, rats are anesthetized with nitrous oxide, oxygen and isoflurane as described above.\nT2-weighted imaging is performed using a turbo spin echo sequence (orientation axial, TR 3240 ms, TE 81 ms, matrix 152×256, FOV 90×53.4 mm^2, slice thickness 1.5 mm, 3 averages, scan time 3 min 40 s). For dynamic contrast-enhanced MRI, a saturation recovery turbo flash sequence through the largest diameter of the tumor (orientation axial, TR 373 ms, TE 1.86 ms, matrix 192×144, FOV 130×97.5 mm, slice thickness 5 mm, measurements 512, averages 1, scan time 6 min 55 s) is used. After 20 s baseline, 0.1 mmol/kg Gd-DTPA (Magnevist; Bayer Schering Pharma, Berlin, Germany) is intravenously infused for a time period of 10 s.\nUnenhanced VCT images and MRI-acquired T2-weighted images are analyzed using the Medical Imaging Interaction Toolkit (MITK, Heidelberg, Germany) to determine volumes of osteolytic lesions and soft tissue components, respectively. DCE-MRI acquired data is analyzed using the Dynalab workstation (Mevis Research, Bremen, Germany) according to the two-compartment model of Brix to determine the parameters amplitude A and exchange rate constant kep, as described.^23, 30 Briefly, the injected contrast media is distributed in both compartments (intravascular space and extravascular, interstitial space). The accumulation of contrast agent in these compartments over time is characterized by the amplitude A (associated with blood volume), whereas the exchange of contrast agent between the intravascular space and the interstitial space is characterized by the exchange rate constant kep (associated with vessel permeability). For determination of the respective values of the amplitude A and kep of bone metastases in our study, a region of interest is placed around the soft tissue component on color maps for A and kep, respectively, using the Dynalab workstation (Mevis Research, Bremen, Germany). […]"}}, "data": [{"compound": "CC(C)[C@H]1C(=O)N[C@@H](CCCN=C(N)N)C(=O)NCC(=O)N[C@@H](CC(=O)O)C(=O)N[C@H](Cc2ccccc2)C(=O)N1C", "note": "[Cilengitide, cyclo-(Arg-Gly-Asp-DPhe-NMeVal)]", "values": [{"measurement": "tumour volume on day 60", "setting": "[1]", "result": "below 200 mm^3"}, {"measurement": "DCE-MRI parameter exchange rate constant kep, mean relative value", "setting": "[2]; day 35 (controls 86%; p>0.05)", "result": "69 % of initial value"}, {"measurement": "DCE-MRI parameter amplitude A, mean relative value", "setting": "[2]; day 35 post inoculation (controls 106%; p>0.05)", "result": "97 % of initial value"}, {"measurement": "DCE-MRI parameter exchange rate constant kep, mean relative value", "setting": "[2]; day 45 (controls 63%; p>0.05)", "result": "88 % of initial value"}, {"measurement": "DCE-MRI parameter amplitude A, mean relative value", "setting": "[2]; day 45 (controls 125%; p<0.05)", "result": "102 % of initial value"}, {"measurement": "DCE-MRI parameter exchange rate constant kep, mean relative value", "setting": "[2]; day 55 (controls 40%; p<0.05)", "result": "72 % of initial value"}, {"measurement": "DCE-MRI parameter amplitude A, mean relative value", "setting": "[2]; day 55 (controls 105%; p<0.05)", "result": "93 % of initial value"}]}]}
